Source: patent US11739122B2, “Glycopeptide antibiotic compounds, methods for producing the same, and uses thereof” (Academia Sinica, priority 2019, dated 2023)
In brackets after ≈: the same amount, converted by molar mass.

Legend:
E. faecalis ATCC 29302 = test: MIC, broth microdilution; type: cell-based; conditions: EF ATCC 29302
Description: (§1) Determination of Minimal Inhibitory Concentration (MIC) for Vancomycin, Teicoplanin and Tei-Analogs Versus Selected Strains
(§2) MICs were determined by the broth microdilution method. Specifically, 12 Colonies of the test strain were picked up from 18-24 hour agar cultures and freshly inoculated into broth mediums until reaching the turbidity of a 0.5 McFarland standard. The broth culture was adjusted with broth medium to approximately 1×10^8 CFUmL^−1. […] The plates were incubated in 37° C. for 18-24 hours and monitored for the wells of the positive control, where cells grew, and the wells of the negative control, where wells should not grow. The MIC value was determined for the concentration of a test compound, at which there was no visible growth in the well.

AB ATCC 19606 = test: Minimal bactericidal concentration (MBC); type: cell-based, Acinetobacter baumannii
Description: (§3) Minimal Bactericidal Concentration (MBC) Determination
(§4) The MBC test is an extension of the MIC examination. MBC was determined by performing subcultures on antibiotic-free agar from both the well where there was no visible growth at the MIC of a tested antibiotic and from the positive control well (with inoculum but without compounds). The plates were incubated at 37° C. for 18-24 hours. The MBC was taken as the lowest concentration of the test compound that results in more than 99.9% reduction of viable bacteria. If MBC was one or two dilutions above a given MIC value (MBC/MIC ratio was less than or equal to four), the antibiotic was considered bactericidal against the test organism.

MRSA ATCC 700787 VRSA = test: MIC, broth microdilution; type: cell-based, Staphylococcus aureus
Description: as §1, §2

S. aureus ATCC 29213 = test: MIC, broth microdilution; type: cell-based, Staphylococcus aureus; conditions: SA ATCC 29213
Description: as §1, §2

MRSA ATCC 700698 hVISA = test: MIC, broth microdilution; type: cell-based, Staphylococcus aureus; conditions: MRSA ATCC 700698 hVISA
Description: as §1, §2

A. baumannii ATCC 19606 [1] = test: Thin-section TEM, cell wall morphology; type: cell-based, Acinetobacter baumannii; conditions: AB ATCC 19606; 24 50 μM, colistin 3.2 μM, combination 25 μM each
VRE ATCC 700425 (vanC) = test: MIC, broth microdilution; type: cell-based, enterococci; conditions: VRE ATCC 700425 (vanC)
Description: as §1, §2

VRE ATCC 700802 (vanB) = test: MIC, broth microdilution; type: cell-based, enterococci; conditions: VRE ATCC 700802 (vanB)
Description: as §1, §2

VRE ATCC 700221 (vanA) = test: MIC, broth microdilution; type: cell-based, enterococci; conditions: VRE ATCC 700221 (vanA)
Description: as §1, §2

A. baumannii ATCC 19606 [2] = test: MIC, broth microdilution; type: cell-based, Acinetobacter baumannii
Description: as §1, §2

MRSA ATCC 700787 [3] = test: Minimal bactericidal concentration (MBC); type: cell-based, Staphylococcus aureus
Description: as §3, §4

HEK293T cells = test: Alamar Blue cell viability assay; type: cell-based, human; conditions: up to 100 μgmL^−1; 2 and 24 h
Description: The Alamar Blue (AB) assay, which includes a redox indicator that changes color or emits fluorescence in response to a metabolic activity, was used to assess in vitro mammalian cell cytotoxicity (human embryonic kidney cells (HEK293T)) upon an antibiotic treatment. 2×10^5 cellsmL^−1 were allowed to adhere on 96-well plates overnight at 37° C. in a humidified incubator (5% CO2 atmosphere). Tested compounds were dissolved in 50% DMSO to make 1 mgmL^−1 of a stock solution. Cells were separately aliquoted with 5 μL of a test compound (final concentration: 100 μgmL^−1) and incubated. PBS and 50% DMSO, which was used to dissolve compounds, served as a control. Cell viability was triplicated and assessed at 2 and 24 hour time points for each test compound, on which the measurements followed the manufacturer protocol.

A. baumannii ATCC 19606 [4] = test: In vivo efficacy, intranasal A. baumannii infection; parameters: species or system mice; conditions: BAL fluid, 24 hours post-inoculation
Description: (§5) In Vivo Efficacy of r6,N-Acyl-Glc Tei Analogs
(§6) Female C57BL/6 mice (6 weeks of age; about 16-19 g, 3-5 mice per group) were intraperitoneally inoculated with 300 μL of MRSA ATCC 700787 suspension (about 10^7 CFUmL^−1). For intranasal A. baumannii (ATCC 19606) inoculation, mice were anesthetized, and inoculated intranasally with about 10^7-10^8 CFUmL^−1 A. baumannii in 50 μL of PBS. Treatments were started 1 hour after the bacterial challenge. The dose administration to mice was set as follows: teicoplanin (1) or r6,C8-Tei analog (14) 20 mgkg^−1 was intraperitoneally injected to MRSA-infected mice; amikacin (15 mgkg^−1), teicoplanin (1) (30 mgkg^−1), kanamycin (30 mgkg^−1) or r1,Me2-r6,guanidino-C8 analog (24) (30 mgkg^−1) was intraperitoneally injected to AB-infected mice. To assess bacteraemia, the test animals were sacrificed to collect 1 mL of peritoneal fluid (PF) for MRSA counting or the lungs were lavaged to collect 0.6 mL bronchoalveolar lavage (BAL) fluid for A. baumannii counting.
For AB (ATCC 19606), female C57BL/6 mice were first anesthetized by intraperitoneal injection of zoletil and then intranasally inoculated with 50 μL of bacteria in a PBS solution (about 10^7-10^8 CFUmL^−1). The treatment started 1 hour post-infection with a single dose of compound 24 (30 mgkg^−1), compound 1 (30 mgkg^−1), amikacin (15 mgkg^−1), or kanamycin (30 mgkg^−1), where saline/compound 1 and amikacin/kanamycin respectively served as negative and positive controls. To assess the density of bacteraemia, the lungs of mice were lavaged to collect 0.6 mL bronchoalveolar lavage (BAL) fluid from each mouse at 24 hours post-inoculation. For saline/compound 1 treated controls, the bacterial load was counted (about 4 log CFUmL^−1, FIG. 4B), where the bacterial load was reduced by 0.5 or 1 log CFUmL^−1 with the treatment of amikacin/kanamycin or compound 24, respectively.

MRSA ATCC 700787 [5] = test: Thin-section TEM, cell wall morphology; type: cell-based, Staphylococcus aureus
Description: Thin-Section Transmission Electron Microscopy (TEM)
An overnight cultured MRSA ATCC 700787, VRE ATCC 700221 or A. baumannii ATCC 19606 was individually sub-cultured into a fresh medium. Bacteria at the exponential phase were treated with a given test compound at a concentration of 4×MIC for 1-4 hour at 37° C. and followed by wash and resuspension in PBS. Bacteria cells for the TEM analysis were prepared as follows: Cells were fixed with 2.5% glutaraldehyde for 30 minutes. After the fixation, cells were washed twice with PBS and fixed with 1% osmium tetraoxide for another 30 minutes. All the buffer was removed with distilled water. The cells were then stained with 1% uranyl acetate and dehydrated with a graded ethanol solution. Cells were embedded in resin. Finally, each sample was cut into thin slices of approximately 90 nm with a glass knife and stained with uranyl acetate. The images of bacterial morphological were recorded.
The cell wall/membrane apparently is the targets, while the extent of damage depends on what compound imposes on the strain. […] Cell wall thickening has been a common phenotype in clinical MRSA isolates, which may well be a phenotypic determinant for VRSA. The systemic cell-wall damage may account for the cell-wall biosynthesis crippled all over the cell surface in cell-wall thickening strains, thus leading cells to lysis as a result of the osmotic pressure of cytoplasm.

MRSA ATCC 700789 VRSA = test: MIC, broth microdilution; type: cell-based, Staphylococcus aureus; conditions: MRSA ATCC 700789 VRSA
Description: as §1, §2

MRSA ATCC BAA-38 = test: MIC, broth microdilution; type: cell-based, Staphylococcus aureus; conditions: MRSA ATCC BAA-38
Description: as §1, §2

MRSA ATCC BAA-39 = test: MIC, broth microdilution; type: cell-based, Staphylococcus aureus; conditions: MRSA ATCC BAA-39
Description: as §1, §2

MRSA ATCC 43300 = test: MIC, broth microdilution; type: cell-based, Staphylococcus aureus; conditions: MRSA ATCC 43300
Description: as §1, §2

MRSA ATCC BAA-44 = test: MIC, broth microdilution; type: cell-based, Staphylococcus aureus; conditions: MRSA ATCC BAA-44
Description: as §1, §2

MRSA ATCC 700787 [6] = test: In vivo efficacy, intraperitoneal MRSA infection; parameters: species or system mice; conditions: peritoneal fluid, 24 hours post-inoculation, single dose 20 mgkg^−1 IP
Description: as §5, §6
For MRSA, mice were inoculated intraperitoneally (IP) with 0.3 mL of MRSA ATCC 700787 suspension (about 10^7 CFUmL^−1). […] For the saline treated control, bacterial count was calculated (about 7.5 log CFUmL^−1, FIG. 4A). […]

[7] = A. baumannii ATCC 19606, Table 3, first figure of cell
[8] = A. baumannii ATCC 19606, Table 3, second figure of cell

With `CN(C)[C@H]1C(=O)N[C@@H]2Cc3ccc(c(Cl)c3)Oc3cc4cc(c3O)Oc3ccc(cc3Cl)[C@@H](O[C@@H]3O[C@H](CO)[C@@H](O)[C@H](O)[C@H]3NC(=O)CCCCCCCNC(=N)N)[C@@H]3NC(=O)[C@H](NC(=O)[C@@H]4NC(=O)[C@@H](NC2=O)c2cc(O)cc(c2)Oc2cc1ccc2O)c1ccc(O)c(c1)-c1c(O)cc(O)cc1[C@@H](C(=O)O)NC3=O` [Compound 24, r1,Me2-r6,C8-guanidino-Tei] the MIC (E. faecalis ATCC 29302) was 0.5 µg/mL (≈ 0.318 µM), the MBC (AB ATCC 19606) was 39.24 µg/mL (≈ 25 µM) and the MBC/MIC (AB ATCC 19606) was 1. The MIC (MRSA ATCC 700787 VRSA; MRSA ATCC 700787, Table 4) was 0.016 µg/mL (≈ 0.0102 µM), the MIC (MRSA ATCC 700787 VRSA; MRSA ATCC 700787 VRSA) was 0.016 µg/mL (≈ 0.0102 µM) and the MIC (S. aureus ATCC 29213) was 0.5 µg/mL (≈ 0.318 µM). The MIC (MRSA ATCC 700698 hVISA) was 0.031 µg/mL (≈ 0.0197 µM), the “cell membrane/cell wall morphology by TEM” value (A. baumannii ATCC 19606 [1]) was “intactness of cell membrane/cell wall was severely damaged” and the MIC (VRE ATCC 700425 (vanC)) was 8 µg/mL (≈ 5.09 µM). For the same compound, the MIC (VRE ATCC 700802 (vanB)) was 4 µg/mL (≈ 2.55 µM), the MIC (VRE ATCC 700221 (vanA)) was >16 µg/mL and the “MIC on AB” value (A. baumannii ATCC 19606 [2]; A. baumannii ATCC 19606) was 39.24 µg/mL (≈ 25 µM). It also gave an MIC (A. baumannii ATCC 19606 [2]; [7]) of 25 µM, an MIC (A. baumannii ATCC 19606 [2]; [8]) of 39.24 µg/mL and an MIC (A. baumannii ATCC 19606 [2]; AB ATCC 19606, Table 4) of 39.24 µg/mL. For the same compound, the MBC (MRSA ATCC 700787 [3]) was 0.031 µg/mL (≈ 0.0197 µM), the MBC/MIC (MRSA ATCC 700787 [3]) was 2 and the “cytotoxicity to HEK293T cells” value (HEK293T cells) was “did not exhibit any observable toxicity”. For the same compound, the “bacterial load reduced by” value (A. baumannii ATCC 19606 [4]; 24 and kanamycin 30, amikacin 15 mgkg^−1) was 1 log CFUmL^−1.

“teicoplanin [Compound 1, reference compound]” was tested, and the MIC (E. faecalis ATCC 29302) was 0.125 µg/mL, the “cell wall morphology by TEM” value (MRSA ATCC 700787 [5]) was “loose” and the MIC (MRSA ATCC 700787 VRSA; MRSA ATCC 700787 VRSA) was 8 µg/mL. It also gave an MIC (MRSA ATCC 700789 VRSA) of 4 µg/mL, an MIC (MRSA ATCC BAA-38) of 0.25 µg/mL and an MIC (MRSA ATCC BAA-39) of 0.5 µg/mL. The MIC (S. aureus ATCC 29213) was 0.25 µg/mL, the MIC (MRSA ATCC 43300) was 0.25 µg/mL and the MIC (MRSA ATCC 700698 hVISA) was 4 µg/mL. The MIC (MRSA ATCC BAA-44) was 0.5 µg/mL, the MIC (VRE ATCC 700425 (vanC)) was 1 µg/mL and the MIC (VRE ATCC 700802 (vanB)) was 0.5 µg/mL. For the same compound, the MIC (VRE ATCC 700221 (vanA)) was >128 µg/mL, the MIC (A. baumannii ATCC 19606 [2]; [7]) was 100 µM and the MIC (A. baumannii ATCC 19606 [2]; [8]) was 187.97 µg/mL. The “cytotoxicity to HEK293T cells” value (HEK293T cells) was “did not exhibit any observable toxicity”, the “bacterial load reduced by” value (MRSA ATCC 700787 [6]) was 1.5 log CFUmL^−1 and the bacterial load (A. baumannii ATCC 19606 [4]; 30 mgkg^−1) was “about 4 log CFUmL^−1”.
